Test results taken from PubChem BioAssay (NCI).
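Tested at 5 concentrations; 48 h exposure; 96-well plates; endpoints linearly interpolated, else capped at highest concentration. GI50: concentration for 50% inhibition of growth. At the TGI there is no net growth.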

How the values were obtained:
Experiment in all cases: DTP human tumour cell line panel, 48 h
[1] = system: SNB-19 CNS
[2] = system: OVCAR-8 ovarian
[3] = system: NCI/ADR-RES ovarian
[4] = system: OVCAR-3 ovarian
[5] = system: NCI-H23 lung
[6] = system: MOLT-4 leukemia
[7] = system: OVCAR-5 ovarian
[8] = system: TK-10 renal
[9] = system: RXF 393 renal
[10] = system: COLO 205 colon
[11] = system: EKVX NSCLC
[12] = system: HCT-15 colon
[13] = system: M14 melanoma
[14] = system: SW-620 colon
[15] = system: MCF7 breast
[16] = system: NCI-H226 lung
[17] = system: MDA-N
[18] = system: SK-MEL-2 melanoma
[19] = system: HL-60(TB) leukemia
[20] = system: MALME-3M melanoma
[21] = system: HT29 colon
[22] = system: RPMI-8226 leukemia
[23] = system: HS 578T breast
[24] = system: 786-0 renal
[25] = system: SK-MEL-28 melanoma
[26] = system: A498 renal
[27] = system: PC-3 prostate
[28] = system: SK-OV-3 ovarian
[29] = system: UACC-257 melanoma
[30] = system: CCRF-CEM leukemia
[31] = system: HOP-62 NSCLC
[32] = system: SF-295 CNS
[33] = system: UO-31 renal
[34] = system: ACHN renal
[35] = system: MDA-MB-231 breast
[36] = system: U251 CNS
[37] = system: LOX IMVI melanoma
[38] = system: MDA-MB-435
[39] = system: NCI-H460 lung
[40] = system: SF-539 CNS
[41] = system: SF-268 CNS
[42] = system: DU-145 prostate
[43] = system: IGROV1 ovarian
[44] = system: CAKI-1 renal
[45] = system: HCT-116 colon
[46] = system: UACC-62 melanoma
[47] = system: K-562 leukemia
[48] = system: BT-549 breast
[49] = system: SR leukemia
[50] = system: KM12 colon
[51] = system: SN12C renal
[52] = system: SK-MEL-5 melanoma
[53] = system: OVCAR-4 ovarian
[54] = system: HCC-2998 colon
[55] = system: HOP-92 NSCLC
[56] = system: NCI-H522 lung
[57] = system: A549 NSCLC
[58] = system: T-47D breast
[59] = system: SNB-75 CNS

Work on `O=Cc1ccc2[nH]c(=O)oc2c1` yielded a TGI [1] of over 100 µM, a TGI [2] of over 100 µM and a TGI [3] of over 100 µM. The TGI [4] was over 100 µM, the TGI [5] was over 100 µM and the TGI [6] was over 100 µM. It also gave a TGI [7] of over 100 µM, a TGI [8] of over 100 µM and a TGI [9] of over 100 µM. For the same molecule, the TGI [10] was over 100 µM, the TGI [11] was over 100 µM and the TGI [12] was over 100 µM. It also gave a TGI [13] of over 100 µM, a TGI [14] of over 100 µM and a TGI [15] of over 100 µM. For the same molecule, the TGI [16] was over 100 µM, the TGI [17] was over 100 µM and the TGI [18] was over 100 µM. The TGI [19] was over 100 µM, the TGI [20] was over 100 µM and the TGI [21] was over 100 µM. For the same molecule, the TGI [22] was over 100 µM, the TGI [23] was over 100 µM and the TGI [24] was over 100 µM. For the same molecule, the TGI [25] was over 100 µM, the TGI [26] was over 100 µM and the TGI [27] was over 100 µM. It also gave a TGI [28] of over 100 µM, a TGI [29] of over 100 µM and a TGI [30] of over 100 µM. The TGI [31] was over 100 µM, the TGI [32] was over 100 µM and the TGI [33] was 82.7 µM. It also gave a TGI [34] of over 100 µM, a TGI [35] of over 100 µM and a TGI [36] of over 100 µM. For the same molecule, the TGI [37] was over 100 µM, the TGI [38] was over 100 µM and the TGI [39] was over 100 µM. For the same molecule, the TGI [40] was over 100 µM, the TGI [41] was over 100 µM and the TGI [42] was over 100 µM. It also gave a TGI [43] of over 100 µM, a TGI [44] of over 100 µM and a TGI [45] of over 100 µM. It also gave a TGI [46] of over 100 µM, a TGI [47] of over 100 µM and a TGI [48] of over 100 µM. It also gave a TGI [49] of over 100 µM, a TGI [50] of over 100 µM and a TGI [51] of over 100 µM.

`COC(=O)[C@]1(C)CC[C@]2(C)CC[C@]3(C)C(=CC(=O)[C@@H]4[C@@]5(C)CCC(=O)NC(C)(C)[C@@H]5CC[C@]43C)[C@@H]2C1` gave a GI50 [1] of 29 µM, a TGI [1] of over 100 µM and a GI50 [2] of 29.2 µM. The TGI [2] was over 100 µM, the GI50 [3] was 20.2 µM and the TGI [3] was 53.6 µM. It also gave a GI50 [4] of 15.3 µM, a TGI [4] of 32.7 µM and a GI50 [52] of 14.7 µM. The TGI [52] was 28.9 µM, the GI50 [5] was 31 µM and the TGI [5] was over 100 µM. It also gave a GI50 [6] of 10.5 µM, a TGI [6] of 31.6 µM and a GI50 [7] of 21.3 µM. The TGI [7] was 38.9 µM, the GI50 [8] was 40.2 µM and the TGI [8] was over 100 µM. It also gave a GI50 [9] of 13.5 µM, a TGI [9] of 27.5 µM and a GI50 [10] of 17.1 µM. It also gave a TGI [10] of 50.4 µM, a GI50 [11] of 25.5 µM and a TGI [11] of over 100 µM. It also gave a GI50 [12] of 16.1 µM, a TGI [12] of over 100 µM and a GI50 [13] of 19.3 µM. It also gave a TGI [13] of 44.4 µM, a GI50 [14] of 27.3 µM and a TGI [14] of over 100 µM. For the same molecule, the GI50 [15] was 13.3 µM, the TGI [15] was 43.5 µM and the GI50 [16] was 14.9 µM. It also gave a TGI [16] of 35.4 µM, a GI50 [18] of 21.6 µM and a TGI [18] of 95.3 µM. It also gave a GI50 [19] of 16.2 µM, a TGI [19] of 41.6 µM and a GI50 [20] of 18.3 µM. For the same molecule, the TGI [20] was 38 µM, the GI50 [21] was 11.9 µM and the TGI [21] was 80.5 µM. For the same molecule, the GI50 [22] was 12 µM, the TGI [22] was 34.7 µM and the GI50 [23] was 32.7 µM. The TGI [23] was over 100 µM, the GI50 [24] was 18.3 µM and the TGI [24] was 35 µM. The GI50 [53] was 27.6 µM, the TGI [53] was over 100 µM and the GI50 [25] was 18.5 µM. For the same molecule, the TGI [25] was 36.5 µM, the GI50 [54] was 18.4 µM and the TGI [54] was 38.7 µM. The GI50 [26] was 21.4 µM, the TGI [26] was 46.4 µM and the GI50 [27] was 4.69 µM. It also gave a TGI [27] of 21.3 µM, a GI50 [28] of 24 µM and a TGI [28] of over 100 µM. The GI50 [29] was 24.4 µM, the TGI [29] was 94.3 µM and the GI50 [30] was 15.1 µM. For the same molecule, the TGI [30] was 44.6 µM, the GI50 [31] was 29 µM and the TGI [31] was over 100 µM. For the same molecule, the GI50 [55] was 10.7 µM, the TGI [55] was 24.2 µM and the GI50 [32] was 19.4 µM. The TGI [32] was 43.8 µM, the GI50 [33] was 16.9 µM and the TGI [33] was 33.3 µM. For the same molecule, the GI50 [56] was 18.2 µM, the TGI [56] was 69.3 µM and the GI50 [34] was 24 µM. It also gave a TGI [34] of 89.4 µM, a GI50 [35] of 20.9 µM and a TGI [35] of 48.7 µM. It also gave a GI50 [57] of 32.8 µM, a TGI [57] of over 100 µM and a GI50 [36] of 23.3 µM. For the same molecule, the TGI [36] was 89.3 µM, the GI50 [37] was 16.6 µM and the TGI [37] was 32.3 µM. For the same molecule, the GI50 [38] was 26.6 µM, the TGI [38] was over 100 µM and the GI50 [39] was 20.1 µM. For the same molecule, the TGI [39] was 58.8 µM, the GI50 [40] was 14.6 µM and the TGI [40] was 28.6 µM. For the same molecule, the GI50 [58] was 9.97 µM, the TGI [58] was over 100 µM and the GI50 [41] was 28.2 µM. It also gave a TGI [41] of over 100 µM, a GI50 [42] of 20.9 µM and a TGI [42] of 89.6 µM. It also gave a GI50 [59] of 25.5 µM, a TGI [59] of over 100 µM and a GI50 [43] of 26.7 µM. The TGI [43] was over 100 µM, the GI50 [44] was 35.9 µM and the TGI [44] was over 100 µM. The GI50 [45] was 10.8 µM, the TGI [45] was 25.6 µM and the GI50 [46] was 15.3 µM. It also gave a TGI [46] of 38.2 µM, a GI50 [47] of 7.4 µM and a TGI [47] of 66.5 µM. It also gave a GI50 [48] of 12.8 µM, a TGI [48] of 28 µM and a GI50 [49] of 15.5 µM. It also gave a TGI [49] of 50.5 µM, a GI50 [50] of 16.4 µM and a TGI [50] of 38 µM. It also gave a GI50 [51] of 17.1 µM and a TGI [51] of 35.2 µM.

`CCOC(=O)C(C(=O)OCC)C(NC(=O)Nc1cc(C(F)(F)F)ccc1OC)(C(F)(F)F)C(F)(F)F` gave a TGI [1] of over 100 µM, a TGI [2] of over 100 µM and a TGI [3] of 75.9 µM. For the same molecule, the TGI [4] was 54.3 µM, the TGI [52] was 39.6 µM and the TGI [5] was 85.6 µM. The TGI [6] was 68.6 µM, the TGI [7] was over 100 µM and the TGI [8] was over 100 µM. The TGI [9] was 62.3 µM, the TGI [10] was 32.3 µM and the TGI [11] was over 100 µM. For the same molecule, the TGI [12] was over 100 µM, the TGI [13] was 45 µM and the TGI [14] was over 100 µM. For the same molecule, the TGI [15] was over 100 µM, the TGI [16] was 72.4 µM and the TGI [17] was over 100 µM. The TGI [19] was 48.9 µM, the TGI [20] was 51.2 µM and the TGI [21] was 92.1 µM. The TGI [22] was 56.8 µM, the TGI [23] was over 100 µM and the TGI [24] was 55.8 µM. The TGI [53] was 98.6 µM, the TGI [25] was over 100 µM and the TGI [54] was 85 µM. For the same molecule, the TGI [26] was 31.9 µM, the TGI [27] was over 100 µM and the TGI [28] was over 100 µM. The TGI [29] was 94.1 µM, the TGI [30] was 70.9 µM and the TGI [31] was 56.6 µM. For the same molecule, the TGI [55] was 55.8 µM, the TGI [32] was 84.8 µM and the TGI [33] was 39.5 µM. It also gave a TGI [56] of 55.9 µM, a TGI [34] of over 100 µM and a TGI [35] of 39.7 µM. The TGI [57] was over 100 µM, the TGI [36] was 59.1 µM and the TGI [37] was over 100 µM. For the same molecule, the TGI [38] was 43.8 µM, the TGI [39] was over 100 µM and the TGI [40] was 36.2 µM. For the same molecule, the TGI [58] was over 100 µM, the TGI [41] was over 100 µM and the TGI [42] was over 100 µM. It also gave a TGI [43] of 96.9 µM, a TGI [44] of 91.5 µM and a TGI [45] of over 100 µM. For the same molecule, the TGI [46] was 88.8 µM, the TGI [47] was 74.5 µM and the TGI [50] was 66.1 µM. The TGI [51] was 74.2 µM.
